pIC50: −log10 of the molar value. Read-outs that look alike come from different tables or passages of the source. One block for each compound: values may come before it.
Molecular target: T1, full-length SHP2 (His6-tagged SHP2(2-527)) (Homo sapiens, UniProt Q06124)
T1 construct: His6-tagged SHP2(2-527); His6; made in house; host or cells: E. coli
Experiment: SHP2 Enzymatic Assay (fluorescence intensity kinetic assay, DiFMUP hydrolysis)
Format: biochemical
Method in brief: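 1 nM His6-SHP2(2-527), activated by 1 μM bis-phosphopeptide, hydrolysed 50 μM DiFMUP in 25 mM HEPES pH 7.4 with 1 mM DTT, 50 mM KCl and 2% DMSO. DiFMU fluorescence (Ex 355/Em 460 nm) was read kinetically for 15 min at ambient temperature.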

[1] = full-length SHP2 with 1 μM activating peptide, 50 μM DiFMUP, single assay or mean of multiple assays, read-out: Biological Example 1 IC50

T1 sequence (Q06124 2-527): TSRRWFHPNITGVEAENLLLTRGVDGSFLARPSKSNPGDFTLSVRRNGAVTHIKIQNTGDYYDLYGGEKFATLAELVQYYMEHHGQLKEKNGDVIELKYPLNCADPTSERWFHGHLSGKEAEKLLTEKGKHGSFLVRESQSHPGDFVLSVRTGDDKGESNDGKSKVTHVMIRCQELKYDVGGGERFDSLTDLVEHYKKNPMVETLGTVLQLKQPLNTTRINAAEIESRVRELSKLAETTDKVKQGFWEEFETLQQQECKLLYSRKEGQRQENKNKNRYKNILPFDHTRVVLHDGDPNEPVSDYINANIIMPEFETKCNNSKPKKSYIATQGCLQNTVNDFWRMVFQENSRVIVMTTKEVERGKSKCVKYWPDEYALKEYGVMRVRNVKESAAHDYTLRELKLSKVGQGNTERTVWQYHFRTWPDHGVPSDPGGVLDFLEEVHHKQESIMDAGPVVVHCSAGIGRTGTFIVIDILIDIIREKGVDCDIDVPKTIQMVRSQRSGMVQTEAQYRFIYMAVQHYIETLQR

Compound: CCCC1(N)CCN(c2cnc3nc(Sc4ccnc(N)c4Cl)ccc3n2)CC1 [Example 173, 4-((2-(4-amino-4-propylpiperidin-1-yl)pyrido[2,3-b]pyrazin-6-yl)thio)-3-chloropyridin-2-amine]
pIC50: 6.63

Compound: CNc1nccc(Sc2ccc3nc(N4CCC(C)(N)CC4)cnc3n2)c1Cl [Example 161, 4-((2-(4-amino-4-methylpiperidin-1-yl)pyrido[2,3-b]pyrazin-6-yl)thio)-3-chloro-N-methylpyridin-2-amine]
pIC50: 7.35

Compound: NCC1(O)CCN(c2cnc3nc(Sc4ccnc(N)c4Cl)ccc3n2)CC1 [Example 42, 1-(6-((2-amino-3-chloropyridin-4-yl)thio)pyrido[2,3-b]pyrazin-2-yl)-4-(aminomethyl)piperidin-4-ol]
pIC50: 7.02

Compound: Nc1nccc(Sc2ccc3nc(N4CCC5(CCN5)CC4)cnc3n2)c1Cl [Example 55, 4-((2-(1,7-diazaspiro[3.5]nonan-7-yl)pyrido[2,3-b]pyrazin-6-yl)thio)-3-chloropyridin-2-amine]
pIC50: 6.92

Compound: N[C@@H]1c2ccccc2CC12CCN(c1cnc3nc(Sc4cccnc4C(F)(F)F)ccc3n1)CC2 [Example 162, (S)-1′-(6-((2-(trifluoromethyl)pyridin-3-yl)thio)pyrido[2,3-b]pyrazin-2-yl)-1,3-dihydrospiro[indene-2,4′-piperidin]-1-amine]
pIC50: 7.41

Compound: Nc1nccc(Sc2ccc3nc(N4CCC5(CCCC5N)C4)cnc3n2)c1Cl (centres unmarked) [Example 83, 2-(6-((2-amino-3-chloropyridin-4-yl)thio)pyrido[2,3-b]pyrazin-2-yl)-2-azaspiro[4.4]nonan-6-amine]
pIC50: 6.76

Compound: CC1(N)CCN(c2cnc3nc(-c4cccc(Cl)c4Cl)ccc3n2)CC1 [Example 2, 1-(6-(2,3-dichlorophenyl)pyrido[2,3-b]pyrazin-2-yl)-4-methylpiperidin-4-amine]
pIC50 [1]: 7.03

Compound: Nc1nccc(Sc2ccc3nc(N4CCO[C@@H]5CNC[C@H]54)cnc3n2)c1Cl [Example 215, 3-chloro-4-((2-((4aR,7aR)-hexahydropyrrolo[3,4-b][1,4]oxazin-4(4aH)-yl)pyrido[2,3-b]pyrazin-6-yl)thio)235yridine-2-amine]
pIC50: 6.11

pIC50: 7.35
Compound: Nc1nccc(Sc2ccc3nc(N4CCC5(CC4)Cc4ncc(F)cc4[C@@H]5N)cnc3n2)c1Cl (single isomer, unassigned) [Example 118]

Compound: CN(C)C1(C)CCN(c2cnc3nc(-c4cccc(Cl)c4Cl)ccc3n2)CC1 [Example 18, 1-(6-(2,3-dichlorophenyl)pyrido[2,3-b]pyrazin-2-yl)-N,N,4-trimethylpiperidin-4-amine]
pIC50: 6.24

Compound: CNC1(C)CCN(c2cnc3nc(Sc4ccnc(N)c4Cl)ccc3n2)CC1 [Example 31, 3-chloro-4-((2-(4-methyl-4-(methylamino)piperidin-1-yl)pyrido[2,3-b]pyrazin-6-yl)thio)pyridin-2-amine]
pIC50 [1]: 7.00

Compound: C[C@@H]1OCC2(CCN(c3cnc4nc(Sc5ccnc6c5CCC6O)ccc4n3)CC2)[C@@H]1N (stereo partly drawn) [Example 157, 4-((2-((3S,4S)-4-amino-3-methyl-2-oxa-8-azaspiro[4.5]decan-8-yl)pyrido[2,3-b]pyrazin-6-yl)thio)-6,7-dihydro-5H-cyclopenta[b]pyridin-7-ol]
pIC50: 6.55

Compound: C[C@@H]1OCC2(CCN(c3cnc4nc(N5CCCc6ncccc65)ccc4n3)CC2)[C@@H]1N [Example 135, (3S,4S)-8-(6-(3,4-dihydro-1,5-naphthyridin-1(2H)-yl)pyrido[2,3-b]pyrazin-2-yl)-3-methyl-2-oxa-8-azaspiro[4.5]decan-4-amine]
pIC50: 5.40

Compound: CC1(N)CCN(c2cnc3nc(Sc4nccn5nccc45)ccc3n2)CC1 [Example 40, 4-methyl-1-(6-(pyrazolo[1,5-a]pyrazin-4-ylthio)pyrido[2,3-b]pyrazin-2-yl)piperidin-4-amine]
pIC50: 6.36

Compound: NC1(CO)CCN(c2cnc3nc(Sc4ccnc(N5CCCC5)c4Cl)ccc3n2)CC1 [Example 45, (4-amino-1-(6-((3-chloro-2-(pyrrolidin-1-yl)pyridin-4-yl)thio)pyrido[2,3-b]pyrazin-2-yl)piperidin-4-yl)methanol]
pIC50: 7.04

Compound: Nc1nccc(Sc2ccc3nc(N4CCC5(CC4)Cc4cccnc4C5N)cnc3n2)c1Cl (centres unmarked) [Example 158, 1′-(6-((2-amino-3-chloropyridin-4-yl)thio)pyrido[2,3-b]pyrazin-2-yl)-5,7-dihydrospiro[cyclopenta[b]pyridine-6,4′-piperidin]-7-amine]
pIC50: 6.97

Compound: Nc1nccc(Sc2ccc3nc(N4CCCC45CC(N)C5)cnc3n2)c1Cl (centres unmarked) [Example 154, 5-(6-((2-amino-3-chloropyridin-4-yl)thio)pyrido[2,3-b]pyrazin-2-yl)-5-azaspiro[3.4]octan-2-amine]
pIC50: 5.92

Compound: NCC1CN(c2cnc3nc(Sc4ccnc(N)c4Cl)ccc3n2)CCO1 (centres unmarked) [Example 62, 4-((2-(2-(aminomethyl)morpholino)pyrido[2,3-b]pyrazin-6-yl)thio)-3-chloropyridin-2-amine]
pIC50: 6.78

Compound: CC1(N)CCN(c2cnc3nc(Sc4cccc5ccncc45)ccc3n2)CC1 [Example 48, 1-(6-(isoquinolin-8-ylthio)pyrido[2,3-b]pyrazin-2-yl)-4-methylpiperidin-4-amine]
pIC50: 6.34

Compound: Cc1nccc(Sc2ccc3nc(N4CCCC(C)(N)CC4)cnc3n2)c1Cl (centres unmarked) [Example 147, 1-(6-((3-chloro-2-methylpyridin-4-yl)thio)pyrido[2,3-b]pyrazin-2-yl)-4-methylazepan-4-amine]
pIC50: 7.30

Compound: C[C@@H]1OCC2(CCN(c3cnc4nc(Sc5ccc(N)nc5Cl)ccc4n3)CC2)[C@@H]1N [Example 105, (3S,4S)-8-(6-((6-amino-2-chloropyridin-3-yl)thio)pyrido[2,3-b]pyrazin-2-yl)-3-methyl-2-oxa-8-azaspiro[4.5]decan-4-amine]
pIC50: 7.09

Compound: CC1CCN(c2cnc3nc(Sc4ccnc(N)c4Cl)ccc3n2)CC1 [Example 143, 3-chloro-4-((2-(4-methylpiperidin-1-yl)pyrido[2,3-b]pyrazin-6-yl)thio)pyridin-2-amine]
pIC50: 5.76

Compound: Nc1nccc(Sc2ccc3nc(N4CC[C@@H](N)[C@H](O)C4)cnc3n2)c1Cl [Example 82, (3R,4R)-4-amino-1-(6-((2-amino-3-chloropyridin-4-yl)thio)pyrido[2,3-b]pyrazin-2-yl)piperidin-3-ol]
pIC50: 7.19

Compound: CN(CCN)c1cnc2nc(-c3cccc(Cl)c3Cl)ccc2n1 [Example 29, N1-(6-(2,3-dichlorophenyl)pyrido[2,3-b]pyrazin-2-yl)-N1-methylethane-1,2-diamine]
pIC50: 6.49

Compound: C[C@@H]1OCC2(CCN(c3cnc4nc(-c5cccc(Cl)c5Cl)ccc4n3)CC2)[C@@H]1N [Example 39, (3S,4S)-8-(6-(2,3-dichlorophenyl)pyrido[2,3-b]pyrazin-2-yl)-3-methyl-2-oxa-8-azaspiro[4.5]decan-4-amine]
pIC50: 6.49

Compound: Nc1cc(Sc2ccc3nc(N4CCC5(CC4)Cc4ncccc4[C@H]5N)cnc3n2)c(Cl)cn1 [Example 133, (S)-1′-(6-((2-amino-5-chloropyridin-4-yl)thio)pyrido[2,3-b]pyrazin-2-yl)-5,7-dihydrospiro[cyclopenta[b]pyridine-6,4′-piperidin]-5-amine]
pIC50: 7.04

pIC50: 7.00
Compound: COc1cccc(Sc2ccc3nc(N4CCC(C)(N)CC4)cnc3n2)c1Cl [Example 14, 1-(6-((2-chloro-3-methoxyphenyl)thio)pyrido[2,3-b]pyrazin-2-yl)-4-methylpiperidin-4-amine]

Compound: CC1(CN)CCN(c2cnc3cc(-c4cccc(Cl)c4Cl)ccc3n2)CC1 [Example 23, (1-(6-(2,3-dichlorophenyl)quinoxalin-2-yl)-4-methylpiperidin-4-yl)methanamine]
pIC50: 5.60

Compound: C[C@@H]1OCC2(CCN(c3cnc4nc(Sc5c(F)cnc6[nH]ccc56)ccc4n3)CC2)[C@@H]1N [Example 141, (3S,4S)-8-(6-((5-fluoro-1H-pyrrolo[2,3-b]pyridin-4-yl)thio)pyrido[2,3-b]pyrazin-2-yl)-3-methyl-2-oxa-8-azaspiro[4.5]decan-4-amine]
pIC50: 7.13

Compound: C[C@@H]1OCC2(CCN(c3cnc4nc(Sc5ncnc(N)c5Cl)ccc4n3)CC2)[C@@H]1N [Example 217, (3S,4S)-8-(6-((6-amino-5-chloropyrimidin-4-yl)thio)pyrido[2,3-b]pyrazin-2-yl)-3-methyl-2-oxa-8-azaspiro[4.5]decan-4-amine]
pIC50: 6.07

pIC50: 7.10
Compound: Cc1ccc2c(c1)[C@H](N)C1(CCN(c3cnc4nc(Sc5ccnc(N)c5Cl)ccc4n3)CC1)C2 [Example 179, (R)-1′-(6-((2-amino-3-chloropyridin-4-yl)thio)pyrido[2,3-b]pyrazin-2-yl)-6-methyl-1,3-dihydrospiro[indene-2,4′-piperidin]-1-amine]

Compound: NCC1(F)CCN(c2cnc3nc(Sc4cccc(Cl)c4Cl)ccc3n2)CC1 [Example 212, (1-(6-((2,3-dichlorophenyl)thio)pyrido[2,3-b]pyrazin-2-yl)-4-fluoropiperidin-4-yl)methanamine]
pIC50: 6.71

pIC50: 6.88
Compound: Nc1nccc(Sc2ccc3nc(N4CC5CCC4CNC5)cnc3n2)c1Cl (centres unmarked) [Example 202, 4-((2-(3,6-diazabicyclo[3.2.2]nonan-6-yl)pyrido[2,3-b]pyrazin-6-yl)thio)-3-chloropyridin-2-amine]

Compound: CNc1nccc(Sc2ccc3nc(N4CCC[C@](C)(N)CC4)cnc3n2)c1Cl (single isomer, unassigned) [Example 149]
pIC50: 7.01

Compound: Cc1nccc(Sc2ccc3nc(N4CCC5(CC4)CO[C@@H](C)[C@H]5N)cnc3n2)c1C [Example 174, (3S,4S)-8-(6-((2,3-dimethylpyridin-4-yl)thio)pyrido[2,3-b]pyrazin-2-yl)-3-methyl-2-oxa-8-azaspiro[4.5]decan-4-amine]
pIC50: 6.47

Reference: patent US12187721B2, “Protein tyrosine phosphatase inhibitors” (Array BioPharma Inc., priority 2018, dated 2025)
